We go through 5 compounds from US6548533B2, “Ureido substituted pyrrolidines” (Aventis Pharma Limited, priority 1999, dated 2003).

SMILES strings stand for the structures.

Turning to `COc1cc(CC(=O)Nc2ccc(C3CN(C(C)=O)CC3C(=O)O)cc2)ccc1NC(=O)Nc1ccccc1C` (centres unmarked) [Example 1, 1-Acetyl-4-(4-{2-[3-methoxy-4-(3-o-tolyl-ureido)-phenyl]-acetylamino}-phenyl)-pyrrolidine-3-carboxylic Acid], the melting point – broadly, the temperature of the solid-liquid transition – worked out at 242 °C.
To `COc1cc(CC(=O)Nc2ccc(C3CN(C(=O)c4ccccc4)CC3C(=O)O)cc2)ccc1NC(=O)Nc1ccccc1C` (centres unmarked) [Example 2, 1-Benzoyl-4-(4-{2-[3-methoxy-4-(3-o-tolyl-ureido)-phenyl]-acetylamino}-phenyl)-pyrrolidine-3-carboxylic Acid] belongs 248 °C; to `COc1cc(CC(=O)Nc2ccc(C3CN(C(=O)CCC(=O)O)CC3C(=O)O)cc2)ccc1NC(=O)Nc1ccccc1C` (centres unmarked) [Example 3, 1-(3-Carboxy-propionyl)-4-(4-{2-[3-methoxy-4-(3-o-tolyl-ureido)-phenyl]-acetylamino}-phenyl)-pyrrolidine-3-carboxylic Acid], 184 °C.
To `COc1cc(CC(=O)Nc2ccc(C3C(C(=O)O)CCN3C(=O)c3ccccc3)cc2)ccc1NC(=O)Nc1ccccc1C` (centres unmarked) [Example 4, 1-Benzoyl-2-(4-{2-[3-methoxy-4-(3-o-tolyl-ureido)-phenyl]-acetylamino}-phenyl)-pyrrolidine-3-carboxylic Acid] belongs 155 °C (dec.); to `COc1cc(CC(=O)Nc2ccc(C3CN(Cc4ccccc4)CC3C(=O)O)cc2)ccc1NC(=O)Nc1ccccc1C` (centres unmarked) [Example 5, 1-Benzyl-4-(4-{2-[3-methoxy-4-(3-o-tolyl-ureido)-phenyl]-acetylamino}-phenyl)-pyrrolidine-3-carboxylic Acid], 255 °C.
